# Assays:
# [1] = cited from earlier work
# [2] = Cannabis/SNAC oral rat pharmacokinetic (PK) study; format: in vivo; details: rats; for AUC compared to the cannabis alone group: 25 mg/kg cannabis extract; for AUC0-Tlast increase over the cannabis alone group / Cmax increase over the cannabis alone group: 500 mg/kg SNAC and 50 mg/kg cannabis extract vs 25 mg/kg cannabis alone
# Experimental: Summary of cannabis/SNAC oral rat pharmacokinetic (PK) study.
# Methods. Animals were dosed on Day 1 and a series of blood samples were collected over a period of 4 hours post dose for pharmacokinetic evaluation. Animals were euthanized following collection of their last blood sample.
# [3] = cited from earlier work; remark: listed apart in the source
# [4] = system: study participants; experiment: Onset and duration of action of orally administered cannabis/SNAC formulation at a low SNAC dose (100 mg); participant-reported euphoria; format: in vivo, human; details: 100 mg SNAC in oral cannabis formulation
# Experimental: This study was designed to assess the utility of SNAC in enabling a rapid-acting oral form of cannabis at a low dose.
# Selection of Participants. Three study participants were recruited to ingest cannabis formulations and record the onset, duration, and intensity of cannabis-induced euphoria and/or dysphoria.
# (§1) Formulations. The selected cannabis concentrate is commercially available and was provided to participants in an ethanol solution. The concentrate contains 8 mg THC per dose. It was selected because it contains a high percentage of THC, which provides a noticeable effect on user-reported “euphoria”.
# (§2) Methods. For the Control experiment, each participant mixed the cannabis concentrate with 15 ml (one tablespoon) of aqueous ethanol, and immediately swallowed the mixture.
# (§3) For both the Control experiment and the Test experiment, each participant recorded the time of dose administration, the time of onset of euphoria and/or dysphoria, and the observed level of euphoria and/or dysphoria in fifteen minute intervals for five hours following administration of the cannabis dose. Euphoria and dysphoria were reported using a scale value, in a range from 1-10.
# [5] = system: study participants; experiment: Onset and duration of action of orally administered cannabis/SNAC formulation (200 mg SNAC) vs cannabis-only control; participant-reported euphoria/dysphoria; format: in vivo, human; details: 200 mg SNAC in oral cannabis formulation
# Experimental: This study was designed to assess the utility of SNAC in enabling a rapid-acting oral form of cannabis.
# Selection of Participants. Six study participants were recruited to ingest cannabis formulations and record the onset, duration, and intensity of cannabis-induced euphoria and/or dysphoria.
# as §1, §2, §3
# [6] = 25 mg/kg cannabis extract with SNAC at either 250 or 500 mg/kg
compound,measurement,setting,value
COc1ccc([C@@H]2CC(=O)c3c(O)cc(O[C@@H]4O[C@H](CO[C@@H]5O[C@@H](C)[C@H](O)[C@@H](O)[C@H]5O)[C@@H](O)[C@H](O)[C@H]4O)cc3O2)cc1O [Hesperidin],water solubility (in words),[1],low water solubility
COc1cc(CNC(=O)CCCC/C=C/C(C)C)ccc1O [Capsaicin],water solubility (in words),[1],low water solubility
COc1cc(/C=C/C(=O)CC(=O)/C=C/c2ccc(O)c(OC)c2)ccc1O [Curcumin],aqueous solubility,[1],< 100 µg/mL
C[C@@H]1O[C@@H](Oc2c(-c3ccc(O)c(O)c3)oc3cc(O)cc(O)c3c2=O)[C@H](O)[C@H](O)[C@H]1O [Quercitrin],water solubility (in words),[1],low water solubility
CC[C@]1(O)C[C@@H]2CN(CCc3c([nH]c4ccccc34)[C@@](C(=O)OC)(c3cc4c(cc3OC)N(C)[C@H]3[C@@](O)(C(=O)OC)[C@H](OC(C)=O)[C@]5(CC)C=CCN6CC[C@]43[C@@H]65)C2)C1 [Vinblastine],water solubility (in words),[1],low water solubility
COC(=O)[C@H]1[C@H]2C[C@@H]3c4[nH]c5cc(OC)ccc5c4CCN3C[C@H]2C[C@@H](OC(=O)c2cc(OC)c(OC)c(OC)c2)[C@@H]1OC [Reserpine],water solubility (in words),[1],low water solubility
C=CCc1ccc(O)c(OC)c1 [Eugenol],water solubility (in words),[1],low water solubility
Cc1cc(O)c2c(=O)c3c(O)cc(O)c4c5c(O)cc(O)c6c(=O)c7c(O)cc(C)c8c1c2c(c34)c(c78)c65 [Hypericin],water solubility (in words),[1],insoluble in water
Oc1ccc(C=Cc2cc(O)cc(O)c2)cc1 [Resveratrol],aqueous solubility,[1],30 µg/mL
"CCCCCc1cc(O)c2c(c1)OC(C)(C)[C@@H]1CCC(C)=C[C@@H]21 [THC, delta-9-tetrahydrocannabinol]",Cmax increase over cannabis alone,[2]; [6],1.4 fold
same,AUC compared to the cannabis alone group,[2]; 250 mg/kg SNAC group,1.1 fold
same,AUC compared to the cannabis alone group,[2]; 500 mg/kg SNAC group,lower
same,AUC compared to the cannabis alone group,[2]; both SNAC groups (250 and 500 mg/kg),comparable
same,AUC0-Tlast increase over the cannabis alone group,[2],6.3 fold
same,Cmax increase over the cannabis alone group,[2],6.9 fold
same,duration of action / effects,[3]; after oral administration,4 to 6 h
same,onset of action,[3]; after oral administration,up to 1.5 hours
same,peak effect at,[3]; after oral administration,2 to 4 h
same,absorbed,[3]; after single oral doses,90-95%
same,administered dose that reaches the systemic circulation,"[3]; oral, first pass hepatic metabolism and poor aqueous solubility",4-20%
"C=C(C)[C@@H]1CCC(C)=C[C@H]1c1c(O)cc(CCCCC)cc1O [CBD, cannabidiol]",Cmax increase over cannabis alone,[2]; 25 mg/kg cannabis extract with SNAC 250 mg/kg,2.9 fold
same,Cmax increase over cannabis alone,[2]; 25 mg/kg cannabis extract with SNAC 500 mg/kg,2.8 fold
same,Cmax increase over cannabis alone,[2]; [6],2.8 fold
same,AUC0-Tlast increase over the cannabis alone group,[2],22.1 fold
same,Cmax increase over the cannabis alone group,[2],14.2 fold
same,water solubility (in words),[1],very low or no solubility in water
"O=C([O-])CCCCCCCNC(=O)c1ccccc1O.[Na+] [SNAC, sodium N-[8-(2-hydroxybenzoyl)amino] caprylate]",effect of the absorption enhancer on the duration of action of cannabis,[4],no effect on the duration of action of cannabis
same,effect of the absorption enhancer on the duration of action of cannabis,[5],no effect on the duration of action of cannabis
C=CC(C)(O)CCC=C(C)C (stereo not shown) [Linalool],water solubility (in words),[1],low water solubility
C[C@@H]1O[C@@H](OC[C@H]2O[C@@H](Oc3c(-c4ccc(O)c(O)c4)oc4cc(O)cc(O)c4c3=O)[C@H](O)[C@@H](O)[C@@H]2O)[C@H](O)[C@H](O)[C@H]1O [Rutin],water solubility (in words),[1],low water solubility
C[C@@H]1O[C@@H](O[C@H]2[C@H](Oc3cc(O)c4c(c3)O[C@H](c3ccc(O)cc3)CC4=O)O[C@H](CO)[C@@H](O)[C@@H]2O)[C@H](O)[C@H](O)[C@H]1O [Naringin],water solubility (in words),[1],low water solubility

# From patent publication US20200254041A1, “RAPID ONSET AND EXTENDED ACTION PLANT-BASED AND SYNTHETIC CANNABINOID FORMULATIONS” (RECEPTOR HOLDINGS, INC., priority 2017, published 2020)
